The target in data set [1] is Lysine-specific histone demethylase 1A (Homo sapiens, UniProt O60341).
Description: Inhibition of human N-terminal GST-tagged LSD1 isoform2 (158 to end residues) expressed in Escherichia coli using methylated peptide as substrate preincubated with substrate for 15 mins followed by enzyme addition and measured after 30 mins by amplex red and horseradish peroxidase based fluorescence assay
The nature of data set [2]: in vitro. Conditions: human, SW620 cells.
Description: Cytotoxicity against human SW620 cells assessed as inhibition of cell proliferation at 100 uM after 4 hrs by MTT assay relative to control
Data set [3] is described as follows: in vitro. The note with it: human, HCT8 cells.
Description: Cytotoxicity against human HCT8 cells assessed as inhibition of cell proliferation at 100 uM after 4 hrs by MTT assay relative to control
In data set [4] the target is T1, Amine oxidase [flavin-containing] A (Homo sapiens, UniProt P21397).
T1 sequence (P21397 whole entry): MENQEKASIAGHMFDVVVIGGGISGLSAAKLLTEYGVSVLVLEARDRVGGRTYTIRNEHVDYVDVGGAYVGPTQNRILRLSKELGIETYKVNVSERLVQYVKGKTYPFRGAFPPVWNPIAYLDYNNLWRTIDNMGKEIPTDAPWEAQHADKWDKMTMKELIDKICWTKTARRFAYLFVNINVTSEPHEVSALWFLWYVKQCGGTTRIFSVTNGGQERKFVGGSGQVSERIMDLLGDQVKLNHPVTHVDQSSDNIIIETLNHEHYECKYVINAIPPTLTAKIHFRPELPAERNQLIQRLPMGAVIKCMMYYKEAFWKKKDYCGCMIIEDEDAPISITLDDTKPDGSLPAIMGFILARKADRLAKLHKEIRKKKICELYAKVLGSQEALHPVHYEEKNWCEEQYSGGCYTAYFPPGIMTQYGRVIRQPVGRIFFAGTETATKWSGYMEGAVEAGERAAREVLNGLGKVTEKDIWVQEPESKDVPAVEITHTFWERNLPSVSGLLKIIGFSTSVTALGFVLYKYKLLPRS
Briefly: biochemical.
Description: Inhibition of recombinant human MAOA expressed in baculovirus infected BTI insect cells using beetle luciferin as substrate after 1 hr by MAO-Glo assay

Data set [5] deals with T2, Amine oxidase [flavin-containing] B (Homo sapiens, UniProt P27338).
T2 sequence (P27338 whole entry): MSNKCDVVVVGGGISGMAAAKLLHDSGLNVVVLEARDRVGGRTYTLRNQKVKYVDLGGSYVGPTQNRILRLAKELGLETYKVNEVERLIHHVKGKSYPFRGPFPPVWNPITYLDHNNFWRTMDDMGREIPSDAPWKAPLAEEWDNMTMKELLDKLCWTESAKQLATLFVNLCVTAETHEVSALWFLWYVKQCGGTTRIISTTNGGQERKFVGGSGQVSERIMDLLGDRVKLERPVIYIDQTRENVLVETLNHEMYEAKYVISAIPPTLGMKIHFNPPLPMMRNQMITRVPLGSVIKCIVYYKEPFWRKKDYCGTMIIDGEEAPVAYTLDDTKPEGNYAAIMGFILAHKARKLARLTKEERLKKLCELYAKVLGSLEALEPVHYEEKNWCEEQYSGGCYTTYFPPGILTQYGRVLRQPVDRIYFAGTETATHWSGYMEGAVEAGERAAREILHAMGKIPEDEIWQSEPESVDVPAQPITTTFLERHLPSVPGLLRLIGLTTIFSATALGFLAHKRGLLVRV
Briefly: biochemical.
Description: Inhibition of recombinant human MAOB expressed in baculovirus infected BTI insect cells using beetle luciferin as substrate after 1 hr by MAO-Glo assay

Our source for the IC50 and inhibition values is ChEMBL document CHEMBL4330120, “Identification of selective and reversible LSD1 inhibitors with anti-metastasis activity by high-throughput docking” (Bioorg Med Chem Lett, 2019).

What is called IC50 is the concentration that inhibits the measured activity by half. A high value points to weaker potency. For orientation: inhibition means how much of the control response was suppressed. A higher inhibition goes with a response far below the control.

Each structure is given as a SMILES string.

As to `Cc1nc(-c2ccc(CN(C)Cc3cccc4cnccc34)cc2)[nH]c(=O)c1F`, the IC50 in data set [1] is over 100 µM.

As to `O=C(CCC1NC(=O)NC1=O)NCCc1c[nH]c2ccccc12` (stereo not given), the inhibition at 4 h, 100 µM in data set [2] and in data set [3] was 35% each time. Further, the half-inhibitory concentration (IC50) in data set [4] and in data set [5] was over 200 µM in each case.
